According to US5616606A, “Oligopeptide antiretroviral agents” (priority 1995, dated 1997):
Values joined by “and” are separate entries in the source; they are usually repeats but may differ in a detail not shown here. Equal values may be shown once.

Experiments:
HBV [1] = conditions: 9 μM; relative to average levels in untreated cells; typically observed (Korba and Milman, 1991); cited from earlier work
SC-1 cells = assay: toxicity TD50 reported with the anti-MLV test; conditions: Table IV
2.2.15 cells = assay: toxicity analysis, neutral red dye uptake in 2.2.15 cells; conditions: triplicate, ± standard deviation
[2] = test system: Moloney murine leukemia virus (MLV); assay: anti-Moloney murine leukemia virus (MLV) plaque test; assay type: cell-based; conditions: anti-MLV plaque count
HBV [3] = assay: inhibition of HBV DNA replication in 2.2.15 cell cultures; assay type: cell-based; conditions: for INT[…] DNA MONO. / INT[…] DNA RI: 24 hours following the 9th day of treatment; for INT[…] DNA MONO. / INT[…] DNA RI / HBV VIRION DNA DAY 0 / HBV VIRION DNA DAY 6 / HBV VIRION DNA DAY 9: single well

## Nc1ccn([C@H]2CC[C@@H](CO)O2)c(=O)n1 [DDC, 2,3'-dideoxycytosine, reference compound]
HBV [1]
  depression of HBV RI: 90%
SC-1 cells
  Toxicity, TD50: > 100.00 ug/mL^-1
2.2.15 cells; 10 μg/ml
  NEUTRAL RED DYE UPTAKE: 99 ± 1 % OF CONTROL
2.2.15 cells; 30 μg/ml
  NEUTRAL RED DYE UPTAKE: 100 ± 1 % OF CONTROL
2.2.15 cells; 100 μg/ml
  NEUTRAL RED DYE UPTAKE: 89 ± 3 % OF CONTROL
2.2.15 cells; 300 μg/ml
  NEUTRAL RED DYE UPTAKE: 17 ± 2 % OF CONTROL
[2]
  Activity, MIC50: 0.74 µg/mL
HBV [3]; 10 μM, listed as 2',3'-ddC
  INT[…] DNA MONO.: 2.5 pg/μg CELL DNA and 2.0 pg/μg CELL DNA
  INT[…] DNA RI: 9 pg/μg CELL DNA and 7 pg/μg CELL DNA and 8 pg/μg CELL DNA and 5 pg/μg CELL DNA
  HBV VIRION DNA DAY 0: 63 pg/ml CULTURE MEDIUM and 66 pg/ml CULTURE MEDIUM and 78 pg/ml CULTURE MEDIUM and 68 pg/ml CULTURE MEDIUM
  HBV VIRION DNA DAY 6: 43 pg/ml CULTURE MEDIUM and 47 pg/ml CULTURE MEDIUM and 54 pg/ml CULTURE MEDIUM and 45 pg/ml CULTURE MEDIUM
  HBV VIRION DNA DAY 9: 7 pg/ml CULTURE MEDIUM and 5 pg/ml CULTURE MEDIUM and 6 pg/ml CULTURE MEDIUM and 8 pg/ml CULTURE MEDIUM
HBV [3]; 50 μM, listed as 2',3'-ddC
  INT[…] DNA MONO.: 1.2 pg/μg CELL DNA and 1.4 pg/μg CELL DNA and 1.8 pg/μg CELL DNA and 1.7 pg/μg CELL DNA
  INT[…] DNA RI: 2 pg/μg CELL DNA and 1 pg/μg CELL DNA
  HBV VIRION DNA DAY 0: 57 pg/ml CULTURE MEDIUM and 51 pg/ml CULTURE MEDIUM and 58 pg/ml CULTURE MEDIUM and 59 pg/ml CULTURE MEDIUM
  HBV VIRION DNA DAY 6: 26 pg/ml CULTURE MEDIUM and 28 pg/ml CULTURE MEDIUM and 30 pg/ml CULTURE MEDIUM and 20 pg/ml CULTURE MEDIUM
HBV [3]; 50 μM, zero = undetectable, cutoff 0.1 pg/ml
  HBV VIRION DNA DAY 9: 0 pg/ml CULTURE MEDIUM
HBV [3]; tested at 50 and 10 μM, compared with 2',3'-ddC
  effect on HBV replication (in words): significant depressions of HBV DNA replication
